Experimental data published in paper PMC8951016, “Computational Design and Biological Evaluation of Analogs of Lupin Peptide P5 Endowed with Dual PCSK9/HMG-CoAR Inhibiting Activity” (Pharmaceutics, 2022).

Tested on: PCSK9
Experiment: Western blot, PCSK9 protein level in HepG2
Format: cell-based, human
Conditions: active at 50 µM in hepatic cells vs 250 µM; PCSK9 protein level and secretion
Procedure: A total of 1.5 × 10^5 HepG2 cells/well (24-well plate) were treated with 50 μM of P5 and P5 analogs for 24 h. Immunoblotting experiments were performed using optimized protocol. See Supplementary Materials for further details.
PBS for 1.5 h at RT. LDLR primary antibody solution (1:3000 in 5% BSA in PBS, 25 µL/well) was incubated O/N at +4 °C. Subsequently, the primary antibody solution was discarded and each sample was washed 5 times with 100 µL/well of PBS (each wash was for 5 min at RT). Goat anti-rabbit Ig-HRP secondary antibody solution (Santa Cruz) (1:6000 in 5% BSA in PBS, 50 µL/well), was added and incubated 1 h at RT. […] The reaction was stopped with 2 M H2SO4 and then the absorbance at 450 nm was measured using the microplate reader Synergy H1 (Winoo-ski, VT, USA). After the read, cells were stained by adding 1 X Janus Green stain, incubat-ing for 5 min at RT. […]
Afterward 100 µL 0.5 M HCl for well were added and incubated for 10 min. After 10 sec-onds shaking, the OD at 595 nm was measured using the microplate reader Synergy H1 […]
Fluorescent LDL Uptake. […] The degree of LDL uptake was measured using the Synergy H1 fluo-rescent plate reader (Winooski, VT, USA) (excitation and emission wavelengths 540 and 570 nm, respectively). Fluorescent LDL-uptake was finally assessed following optimized […]

Sequence: LILPKHSDAD [Peptide P5, natural peptide derived from a peptic lupin protein hydrolysate]
- fold potency vs YVVNPDNNEN: 5 -fold
